{
  "source": "patent US20160030416A1",
  "about": "“METHODS OF TREATING B2-BRADYKININ RECEPTOR MEDIATED ANGIOEDEMA” (SHIRE HUMAN GENETIC THERAPIES, INC., priority 2013, published 2016)",
  "key": {"[1]": {"test": "In vitro microsomal stability, monkey", "assay_type": "in vitro ADME", "conditions": "Monkey (Cynomolgus), Male", "method": "(§1) In vitro metabolic stability studies were performed to determine hepatic stability in vivo. CFMQ was incubated in liver microsomal preparations from mouse, rat, dog, mini-pig, and humans, as well as an additional study with monkey and human. CFMQ was incubated with human and animal liver microsomes at 0.3 mg/mL at 37° C. for 30 or 60 minutes. Additional reference compounds were incubated as controls. Following incubation, samples were analyzed by HPLC-MS/MS."}, "[2]": {"target": "T1, BZD (peripheral) (Rattus norvegicus, UniProt P16257)", "T1 construct": "from tissue", "test": "Off-target receptor binding: BZD (peripheral)", "method": "(§2) To determine the affinity to the B2-bradykinin receptor, CFMQ was compared to a diverse set of receptors and reference agents in an in vitro assay using cells from rat heart, urinary bladder, cerebral cortex, as well as human recombinant cells (CHO and HEK 293) and other cell lines. Each assay included a ligand at a specific concentration (concentration ranging from 0.007-10 nM), in addition to a non-specific ligand (concentration ranging from […]) for incubation periods ranging from 15 minutes to 6 hours at 4°-37° C. The specific binding to the receptors was defined as the difference between the total binding and the nonspecific binding, determined in the presence of an excess of unlabeled CFMQ. The concentration causing a half-maximal inhibition of control specific binding (IC50 values) and inhibition constants (Ki) were determined, and each reference compound was within the accepted limits of the historic average (±0.5 log units)."}, "[3]": {"test": "In vitro microsomal stability, rat", "assay_type": "in vitro ADME", "conditions": "Rat (Wistar)", "method": "as §1"}, "[4]": {"test": "In vitro microsomal stability, dog", "assay_type": "in vitro ADME", "conditions": "Dog (Beagle), Male", "method": "as §1"}, "[5]": {"target": "T2, V1a (h) (Homo sapiens, UniProt P37288)", "T2 construct": "expressed in transfected cells; host or cells: CHO or HEK 293 (not assigned per receptor)", "T2 sequence (P37288 whole entry)": "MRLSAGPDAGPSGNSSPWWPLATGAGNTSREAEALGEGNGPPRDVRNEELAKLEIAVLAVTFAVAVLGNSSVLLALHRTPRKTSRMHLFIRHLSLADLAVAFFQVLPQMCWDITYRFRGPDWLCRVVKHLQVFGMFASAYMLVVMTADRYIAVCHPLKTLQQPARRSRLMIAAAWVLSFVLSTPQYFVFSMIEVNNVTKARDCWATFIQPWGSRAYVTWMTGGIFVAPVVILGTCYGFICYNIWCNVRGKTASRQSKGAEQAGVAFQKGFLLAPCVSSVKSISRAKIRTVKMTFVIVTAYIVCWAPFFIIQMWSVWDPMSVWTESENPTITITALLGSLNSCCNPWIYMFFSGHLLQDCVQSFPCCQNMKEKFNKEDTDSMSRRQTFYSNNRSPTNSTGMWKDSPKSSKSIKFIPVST", "test": "Off-target receptor binding: V1a", "method": "as §2"}, "[6]": {"test": "Plasma kinetics, intravenous, CD-1 mice", "assay_type": "in vivo, female CD-1 mice", "method": "CFMQ (HGT3711) was administered to fasted female CD-1 mice by a single intravenous injection at 1.0 mg/kg, formulated in 100% PEG200. Blood samples were taken via cardiac puncture prior to administration and at 0.083 (5 min), 0.25 (15 min), 0.50 (30 min), 1, 2, 4, and 8 hours post dose. Plasma concentrations of CFMQ (HGT3711) were determined by LC-MS/MS and concentrations below the limit of quantitation (BLOQ=<1 ng/ml) were assigned a value of zero for pharmacokinetic analysis. Nominal dosing concentrations were used in all calculations."}, "[7]": {"test": "In vitro microsomal stability, human", "assay_type": "in vitro ADME", "conditions": "Mix", "method": "as §1"}, "[8]": {"target": "T3, μ (h) (MOP) (agonist site) (Homo sapiens, UniProt P35372)", "T3 construct": "expressed in transfected cells; host or cells: CHO or HEK 293 (not assigned per receptor)", "T3 sequence (P35372 whole entry)": "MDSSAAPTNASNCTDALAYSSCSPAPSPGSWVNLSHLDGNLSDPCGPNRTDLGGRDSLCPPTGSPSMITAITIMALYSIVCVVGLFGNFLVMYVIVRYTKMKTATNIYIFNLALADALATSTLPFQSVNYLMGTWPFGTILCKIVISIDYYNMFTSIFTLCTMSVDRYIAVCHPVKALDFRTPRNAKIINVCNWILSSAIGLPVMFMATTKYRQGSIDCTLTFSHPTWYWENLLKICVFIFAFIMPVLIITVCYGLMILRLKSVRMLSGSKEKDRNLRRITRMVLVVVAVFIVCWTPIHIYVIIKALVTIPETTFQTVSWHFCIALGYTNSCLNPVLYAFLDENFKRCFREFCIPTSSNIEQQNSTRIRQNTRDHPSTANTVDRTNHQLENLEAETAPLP", "test": "Off-target receptor binding: μ (MOP)", "method": "as §2"}, "[9]": {"test": "Pharmacokinetics, single oral gavage, Yucatan mini-pig", "assay_type": "in vivo, female Yucatan Miniature Swine", "conditions": "PO 10 mg/kg", "method": "CFMQ (HGT3711) was administered to female Yucatan Miniature Swine (mini-pig; n=3) by a single oral gavage at 10 mg/kg (concentration 2 mg/mL) at a dose volume of […]. This study utilized the spray-dried dispersion (SDD) (50; 50 with polymer; HPMCAS) formulation of CFMQ (HGT3711) (see below). Blood samples were taken via jugular or other suitable vein puncture prior to administration and at 0.083 (5 min), 0.25 (15 min), 0.50 (30 min), 1, 2, 4, 8, 12 and 24 hours post dose. Plasma concentrations of CFMQ (HGT3711) were determined by LC-MS/MS."}, "[10]": {"conditions": "female, CD-1, mouse, plasma, IV 1 mg/kg"}, "[11]": {"conditions": "female, CD-1, mouse, plasma, IV 1 mg/kg, extrapolated to t = 0"}, "[12]": {"conditions": "female, Yucatan, minipig, plasma"}},
  "data": [
    {"smiles": "Cc1cc(Cl)c(COc2cccc3c(-n4cc(F)cn4)cc(C)nc23)c(Cn2cccc(C#N)c2=O)n1", "note": "[CFMQ, 1-((4-Chloro-3-(((4-(4-fluoro-1H-pyrazol-1-yl)-2-methylquinolin-8-yl)oxy)methyl)-6-methylpyridin-2-yl)methyl)-2-oxo-1,2-dihydropyridine-3-carbonitrile]", "values": [
      {"measurement": "% Remaining [30 minutes]", "setting": "[1]; 30 minutes", "result": 32, "unit": "%"},
      {"measurement": "% Remaining [60 minutes]", "setting": "[1]; 60 minutes", "result": 7, "unit": "%"},
      {"measurement": "IC50", "setting": "[2]", "result": 1400, "unit": "nM"},
      {"measurement": "Ki", "setting": "[2]", "result": 1200, "unit": "nM"},
      {"measurement": "nH", "setting": "[2]", "result": 1.7},
      {"measurement": "inhibition at 10 µM", "setting": "[2]; CFMQ at 10 μM", "result": 93, "unit": "%"},
      {"measurement": "% Remaining [30 minutes]", "setting": "[3]; Female", "result": 76, "unit": "%"},
      {"measurement": "% Remaining [60 minutes]", "setting": "[3]; Female", "result": 60, "unit": "%"},
      {"measurement": "% Remaining [30 minutes]", "setting": "[3]; Male", "result": 3, "unit": "%"},
      {"measurement": "% Remaining [60 minutes]", "setting": "[3]; Male", "result": 0, "unit": "%"},
      {"measurement": "% Remaining [30 minutes]", "setting": "[4]; 30 minutes", "result": 66, "unit": "%"},
      {"measurement": "% Remaining [60 minutes]", "setting": "[4]; 60 minutes", "result": 45, "unit": "%"},
      {"measurement": "IC50", "setting": "[5]", "result": 1500, "unit": "nM"},
      {"measurement": "Ki", "setting": "[5]", "result": 9400, "unit": "nM"},
      {"measurement": "nH", "setting": "[5]", "result": 1.3},
      {"measurement": "inhibition at 10 µM", "setting": "[5]; CFMQ at 10 μM", "result": 51, "unit": "%"},
      {"measurement": "plasma concentration", "setting": "[6]; IV 1 mg/kg, by 4 hours post-dose, BLOQ=<1 ng/ml", "result": "below the BLOQ"},
      {"measurement": "adverse reactions", "setting": "[6]; IV 1.0 mg/kg, mice", "result": "No adverse reactions were observed"},
      {"measurement": "AUC(0-inf)", "setting": "[6]; [10]", "result": 70.9, "unit": "ng·h/mL"},
      {"measurement": "clearance", "setting": "[6]; [10]", "result": 235, "unit": "mL/min/kg"},
      {"measurement": "half-life", "setting": "[6]; [10]", "result": 0.56, "unit": "h"},
      {"measurement": "concentration at 0.083 hr", "setting": "[6]; female, CD-1, mouse, plasma, IV 1 mg/kg, 0.083 hr, read-out: Average Concentration of HGT3711", "result": 162, "unit": "ng/mL"},
      {"measurement": "concentration at 0.25 hr", "setting": "[6]; female, CD-1, mouse, plasma, IV 1 mg/kg, 0.25 hr, read-out: Average Concentration of HGT3711", "result": 92.9, "unit": "ng/mL"},
      {"measurement": "concentration at 0.5 hr", "setting": "[6]; female, CD-1, mouse, plasma, IV 1 mg/kg, 0.50 hr, read-out: Average Concentration of HGT3711", "result": 22.4, "unit": "ng/mL"},
      {"measurement": "concentration at 1 hr", "setting": "[6]; female, CD-1, mouse, plasma, IV 1 mg/kg, 1.0 hr, read-out: Average Concentration of HGT3711", "result": 12.6, "unit": "ng/mL"},
      {"measurement": "concentration at 2 hr", "setting": "[6]; female, CD-1, mouse, plasma, IV 1 mg/kg, 2.0 hr, read-out: Average Concentration of HGT3711", "result": 3.48, "unit": "ng/mL"},
      {"measurement": "C0", "setting": "[6]; [11]", "result": 214, "unit": "ng/mL"},
      {"measurement": "Tmax", "setting": "[6]; [11]", "result": 0, "unit": "h"},
      {"measurement": "AUC(0-t)", "setting": "[6]; female, CD-1, mouse, plasma, IV 1 mg/kg, read-out: AUClast ± SE", "result": 68.1, "unit": "ng·h/mL"},
      {"measurement": "Vd", "setting": "[6]; female, CD-1, mouse, plasma, IV 1 mg/kg, read-out: Vss", "result": 6.3, "unit": "L/kg"},
      {"measurement": "% Remaining [30 minutes]", "setting": "[7]; 30 minutes", "result": "70-91%"},
      {"measurement": "% Remaining [60 minutes]", "setting": "[7]; 60 minutes", "result": "50-85%"},
      {"measurement": "IC50", "setting": "[8]", "result": 6700, "unit": "nM"},
      {"measurement": "Ki", "setting": "[8]", "result": 2700, "unit": "nM"},
      {"measurement": "nH", "setting": "[8]", "result": 1.0},
      {"measurement": "inhibition at 10 µM", "setting": "[8]; CFMQ at 10 μM", "result": 54, "unit": "%"},
      {"measurement": "clinical observations", "setting": "[9]; mini-pig", "result": "no abnormal clinical observations"},
      {"measurement": "AUC(0-inf)", "setting": "[9]; [12]", "result": 11100, "unit": "ng·h/mL"},
      {"measurement": "AUC(0-t)", "setting": "[9]; [12]", "result": 10600, "unit": "ng·h/mL"},
      {"measurement": "half-life", "setting": "[9]; [12]", "result": 57, "unit": "h"},
      {"measurement": "concentration at 4 hr", "setting": "[9]; female, Yucatan, pig (miniature swine), plasma, 4.0 hr, read-out: Average Concentration of HGT3711", "result": 1150, "unit": "ng/mL"},
      {"measurement": "concentration at 8 hr", "setting": "[9]; female, Yucatan, pig (miniature swine), plasma, 8.0 hr, read-out: Average Concentration of HGT3711", "result": 284, "unit": "ng/mL"},
      {"measurement": "concentration at 12 hr", "setting": "[9]; female, Yucatan, pig (miniature swine), plasma, 12 hr, read-out: Average Concentration of HGT3711", "result": 112, "unit": "ng/mL"},
      {"measurement": "concentration at 24 hr", "setting": "[9]; female, Yucatan, pig (miniature swine), plasma, 24 hr, read-out: Average Concentration of HGT3711", "result": 14.2, "unit": "ng/mL"},
      {"measurement": "concentration at 0 hr", "setting": "[9]; female, Yucatan, pig (minipig), plasma, 0 hr, read-out: Average Concentration of HGT3711", "result": 0, "unit": "ng/mL"},
      {"measurement": "concentration at 0.25 hr", "setting": "[9]; female, Yucatan, pig (minipig), plasma, 0.25 hr, read-out: Average Concentration of HGT3711", "result": 80, "unit": "ng/mL"},
      {"measurement": "concentration at 0.5 hr", "setting": "[9]; female, Yucatan, pig (minipig), plasma, 0.5 hr, read-out: Average Concentration of HGT3711", "result": 596, "unit": "ng/mL"},
      {"measurement": "concentration at 1 hr", "setting": "[9]; female, Yucatan, pig (minipig), plasma, 1.0 hr, read-out: Average Concentration of HGT3711", "result": 1560, "unit": "ng/mL"},
      {"measurement": "concentration at 2 hr", "setting": "[9]; female, Yucatan, pig (minipig), plasma, 2.0 hr, read-out: Average Concentration of HGT3711", "result": 2060, "unit": "ng/mL"}
    ]}
  ]
}
